Our source for the logP values is the SangsterLogP compilation.

Structures are written as SMILES.

As usually defined, the logP is a log measure of how a compound divides between an organic and an aqueous phase. A high value points to a more lipophilic compound. On to `CC(C)(C)CCCO`, for which the logP was 2.39.

Consider `CC(C)CC(C)(C)O`, for which the log partition coefficient (logP) was 1.67.

Compound `CCC(CC)CO` came in with a log partition coefficient (logP) of 1.78.

The compound `CCCCC(O)CCCC` came in with a lipophilicity (logP) of 3.36.

In turn, `CC(C)CC(C)O` (stereo unspecified) displayed a logP of 1.67.

As to `CC(C)CC(C)CO` (stereo unspecified), the lipophilicity (logP) was 2.19.

In turn, `CCCCCCC(O)CC` (stereo unspecified) gave a log partition coefficient (logP) of 3.36.

The compound `CCCCCCCCCCCCCCO` showed a logP of 6.11.

As to `CCC(C)(C)CO`, the logP is 1.57.

Turning to `CC(C)C(O)C(C)C`, the logP is 2.31.

`CCCC(C)(C)CO`: the logP was determined as 2.39.

`CC(C)(C)CCO`: the log partition coefficient (logP) came to 1.57.

Compound `CCCCCC(O)CCC` (stereo unspecified) came in with a lipophilicity (logP) of 3.36.

Take `CCCCC(O)CC` (stereo unspecified): the logP came to 2.31.

As to `CCC(O)C(C)(C)C` (stereo unspecified), the logP came out at 2.27.

The compound `CCCCCCCCCCCCCCCO` yielded a log partition coefficient (logP) of 6.64.
